From US11827646B2, “Compounds for treating spinal muscular atrophy” (Hoffmann-La Roche Inc., priority 2014, dated 2023)

Key:
[1] = test system: SMN protein in SMA patient fibroblast cells (GM03813); experiment: SMN protein assay in cultured cells (SMN HTRF); assay type: cell-based; conditions: Homo sapiens, SMA Type 1 patient fibroblasts, 48 hours; for EC (1.5-fold): 7-point concentration curve, 1.5 times SMN protein vs vehicle, read-out: EC1.5x SMN protein (EC1.5x concentration for SMN protein expression); for maximal fold induction: fold increase relative to vehicle control, read-out: max. fold increase of SMN protein
From the text: The term “EC1.5x concentration for SMN protein expression” (or “EC1.5x SMN protein”) is defined as that concentration of test compound that is effective in producing 1.5 times the amount of SMN protein in an SMA patient fibroblast cell compared to the amount produced from the vehicle control.
The SMN HTRF (homogeneous time resolved fluorescence) assay is used to quantify the level of SMN protein in SMA patient fibroblast cells treated with test compounds. Materials used and respective sources are listed below in Table 4.
Cells are thawed and cultured in DMEM-10% FBS for 72 hours. Cells are trypsinized, counted and re-suspended to a concentration of 25,000 cells/mL in DMEM-10% FBS. The cell suspensions are plated at 5,000 cells per well in a 96 well microtiter plate and incubated for 3 to […]. Test compounds are serially diluted 3.16-fold in 100% DMSO to generate a 7-point concentration curve. 1 μL of test compound solution is transferred to cell-containing wells and cells are incubated for 48 hours in a cell culture incubator (37° C., 5% CO2, […]). Triplicate samples are set up for each test compound concentration. After 48 hours, the supernatant is removed from the wells and 25 μL of the RIPA lysis buffer, containing protease inhibitors, is added to the wells and incubated with shaking at room temperature for 1 hour. 25 μL of the diluent is added and then 35 μL of the resulting lysate is transferred to a 384-well plate, where each well contains 5 μL of the antibody solution (1:100 dilution of anti-SMN d2 and anti-SMN kryptate in SMN reconstitution buffer). The plate is centrifuged for 1 minute to bring the solution to the bottom of the wells, then incubated overnight at room temperature. Fluorescence for each well of the plate at 665 nm and 620 nm is measured on an EnVision multilabel plate reader (Perkin-Elmer).
The normalized fluorescence signal is calculated for each sample, Blank and vehicle control well by dividing the signal at 665 nm by the signal at 620 nm. Normalizing the signal accounts for possible fluorescence quenching due to the matrix effect of the lysate. The ΔF value (a measurement of SMN protein abundance as a percent value) for each sample well is calculated by subtracting the normalized average fluorescence for the Blank control wells from the normalized fluorescence for each sample well, then dividing this difference by the normalized average fluorescence for the Blank control wells and multiplying the resulting value by 100. The ΔF value for each sample well represents the SMN protein abundance from test compound-treated samples. The ΔF value for each sample well is divided by the ΔF value for the vehicle control wells to calculate the fold increase in SMN protein abundance relative to the vehicle control. Table 5 provides EC1.5x concentrations for SMN protein expression that was obtained from the 7-point concentration data generated according to the above procedure for particular compounds of the present invention.
Table 6 provides the maximum fold increase of SMN protein that was obtained from the 7-point concentration data generated according to the above procedure for particular compounds of the present invention

[2] = test system: full length SMN2 minigene mRNA (HEK293H cells stably transfected with SMN2-A minigene); experiment: SMN2 minigene mRNA splicing RT-qPCR assay in cultured cells; assay type: cell-based; conditions: Homo sapiens, HEK293-H, 24 hours, 7-point concentration curve, 1.5-fold increase relative to vehicle, read-out: EC1.5x minigene (EC1.5x concentration for production of full length SMN2 minigene mRNA)
From the text: The term “EC1.5x concentration for production of full length SMN2 minigene mRNA” (or “EC1.5x minigene”) is defined as that concentration of test compound that 1 s effective m increasing the amount of full length SMN2 minigene mRNA to a level 1.5-fold greater relative to that in vehicle-treated cells.
The reverse transcription-quantitative PCR-based (RT-qPCR) assay is used to quantify the level of the full length SMN2 minigene (referred to herein by the term “FL SMN2mini”) mRNA containing SMN2 exon 7 in a HEK293H cell line stably transfected with said minigene and treated with a test compound. Materials used and respective sources are listed below in Table 1.
The SMN2-A minigene construct was prepared as described in International Patent Application WO2009/151546A1 page 145 paragraph [00400] to page 147 paragraph [00412](incl. FIG. 1 and FIG. 3 therein).
HEK293H cells stably transfected with the SMN2-A minigene construct (10,000 cells/well) are seeded in 200 μL of cell culture medium (DMEM plus 10% FBS, with 200 μg/mL hygromycin) in 96-well flat-bottom plates and the plate is immediately swirled to ensure proper dispersal of cells and the formation of an even monolayer of cells. Cells are allowed to attach for 6 hours. Test compounds are serially diluted 3.16-fold in 100% DMSO to generate a 7-point concentration curve. A solution of test compound (1 μL, 200× in DMSO) is added to each cell-containing well and the plate is incubated for 24 hours in a cell culture incubator (37° C., 5% CO2, 100% relative humidity). 2 replicates are prepared for each test compound concentration. The cells are then lysed in the Cells-To-Ct lysis buffer and the lysate is stored at −80° C.
Full length SMN2-A minigene and GAPDH mRNA are quantified using the primers and probes referenced in Table 2. Primer SMN Forward A (SEQ ID NO.1) hybridizes to a nucleotide sequence in exon 7 (nucleotide 22 to nucleotide 40), primer SMN Reverse A (SEQ ID NO.2) hybridizes to a nucleotide sequence in the coding sequence of Firefly luciferase, SMN Probe A (SEQ ID NO.3) hybridizes to a nucleotide sequence in exon 7 (nucleotide 50 to nucleotide 54) and exon 8 (nucleotide 1 to nucleotide 21). The combination of these three oligonucleotides detects only SMN1 or SMN2 minigenes (RT-qPCR) and will not detect endogenous SMN1 or SMN2 genes.
The SMN forward and reverse primers are used at final concentrations of 0.4 μM. The SMN probe is used at a final concentration of 0.15 μM. The GAPDH primers are used at final concentrations of 0.2 μM and the probe at 0.15 μM.
The SMN2-minigene GAPDH mix (15 μL total volume) is prepared by combining 7.5 μL of 2×RT-PCR buffer, 0.4 μL of 25×RT-PCR enzyme mix, 0.75 μL of 20×GAPDH primer-probe mix, 4.0075 μL of water, 2 μL of 10-fold diluted cell lysate, 0.06 μL of 100 µM SMN forward primer, 0.06 μL of 100 μM SMN reverse primer, and 0.225 μL of 100 μM SMN probe.
PCR is carried out at the following temperatures for the indicated time: Step 1: 48° C. (15 min); Step 2: 95° C. (10 min); Step 3: 95° C. (15 sec); Step 4: 60° C. (1 min); then repeat Steps 3 and 4 for a total of 40 cycles.
Each reaction mixture contains both SMN2-A minigene and GAPDH primers/probe sets (multiplex design), allowing simultaneous measurement of the levels of two transcripts.
The increase in the abundance of the FL SMN2mini mRNA relative to that in cells treated with vehicle control is determined from real-time PCR data using a modified ΔΔCt method (as described in Livak and Schmittgen, Methods, 2001, 25:402-8). The amplification efficiency E is calculated from the slope of the amplification curve for FL SMN2mini and GAPDH individually. The abundance of FL SMN2mini and GAPDH mRNA are then calculated as (1+E)^−Ct, where Ct is the threshold value for each amplicon. The abundance of FL SMN2mini mRNA is normalized to GAPDH mRNA abundance. […]

Row | Compound | EC (1.5-fold) [1] | maximal fold induction [1] | EC (1.5-fold) [2]
1 | Cc1cn2nc(-c3cc(=O)n4cc(N5CCN(C)CC5)ccc4n3)ccc2n1 [Example 1, 2-(2-methylimidazo[1,2-b]pyridazin-6-yl)-7-(4-methylpiperazin-1-yl)pyrido[1,2-a]pyrimidin-4-one] | 0.0108 µM | 1.84 | 0.0035 µM
2 | Cc1cn2nc(-c3cc(=O)n4cc(N5CCN6CCC[C@@H]6C5)ccc4n3)ccc2n1 [Example 2, 7-[(8aR)-3,4,6,7,8,8a-hexahydro-1H-pyrrolo[1,2-a]pyrazin-2-yl]-2-(2-methylimidazo[1,2-b]pyridazin-6-yl)pyrido[1,2-a]pyrimidin-4-one] | 0.0198 µM | 1.76 | 0.0038 µM
3 | Cc1cn2nc(-c3cc(=O)n4cc(N5CCN6CCC[C@H]6C5)ccc4n3)cc(C)c2n1 [Example 3, 7-[(8aS)-3,4,6,7,8,8a-hexahydro-1H-pyrrolo[1,2-a]pyrazin-2-yl]-2-(2,8-dimethylimidazo[1,2-b]pyridazin-6-yl)pyrido[1,2-a]pyrimidin-4-one] | 0.0256 µM | 1.81 | 0.0032 µM
4 | Cc1cn2nc(-c3cc(=O)n4cc(N5CCN6CCC[C@@H]6C5)ccc4n3)cc(C)c2n1 [Example 4, 7-[(8aR)-3,4,6,7,8,8a-hexahydro-1H-pyrrolo[1,2-a]pyrazin-2-yl]-2-(2,8-dimethylimidazo[1,2-b]pyridazin-6-yl)pyrido[1,2-a]pyrimidin-4-one] | 0.0157 µM | 1.76 | 0.0018 µM
5 | Cc1cn2nc(-c3cc(=O)n4cc(N5CCN6CCC[C@@]6(C)C5)ccc4n3)cc(C)c2n1 [Example 5, 7-[(8aS)-8a-methyl-1,3,4,6,7,8-hexahydropyrrolo[1,2-a]pyrazin-2-yl]-2-(2,8-dimethylimidazo[1,2-b]pyridazin-6-yl)pyrido[1,2-a]pyrimidin-4-one] | 0.0041 µM | 1.71 | 0.0006 µM
6 | Cc1cn2nc(-c3cc(=O)n4cc(N5CCN6CCC[C@]6(C)C5)ccc4n3)cc(C)c2n1 [Example 6, 7-[(8aR)-8a-methyl-1,3,4,6,7,8-hexahydropyrrolo[1,2-a]pyrazin-2-yl]-2-(2,8-dimethylimidazo[1,2-b]pyridazin-6-yl)pyrido[1,2-a]pyrimidin-4-one] | 0.011 µM | 1.84 | 0.0028 µM
7 | Cc1cn2nc(-c3cc(=O)n4cc(N5C[C@@H](C)N[C@@H](C)C5)ccc4n3)cc(C)c2n1 [Example 7, 2-(2,8-dimethylimidazo[1,2-b]pyridazin-6-yl)-7-[(3S,5R)-3,5-dimethylpiperazin-1-yl]pyrido[1,2-a]pyrimidin-4-one] | 0.0155 µM | 1.76 | 0.0037 µM
8 | Cc1cn2nc(-c3cc(=O)n4cc(N5CCN[C@@H](C)C5)ccc4n3)cc(C)c2n1 [Example 8, 2-(2,8-dimethylimidazo[1,2-b]pyridazin-6-yl)-7-[(3S)-3-methylpiperazin-1-yl]pyrido[1,2-a]pyrimidin-4-one] | 0.0059 µM | 1.85 | 0.0003 µM
9 | Cc1cn2nc(-c3cc(=O)n4cc(N5CCN[C@H](C)C5)ccc4n3)cc(C)c2n1 [Example 9, 2-(2,8-dimethylimidazo[1,2-b]pyridazin-6-yl)-7-[(3R)-3-methylpiperazin-1-yl]pyrido[1,2-a]pyrimidin-4-one] | 0.0025 µM | 1.92 | 0.0001 µM
10 | Cc1cn2nc(-c3cc(=O)n4cc(N5CCCNCC5)ccc4n3)cc(C)c2n1 [Example 10, 7-(1,4-diazepan-1-yl)-2-(2,8-dimethylimidazo[1,2-b]pyridazin-6-yl)pyrido[1,2-a]pyrimidin-4-one] | 0.0228 µM | 1.95 | 0.0064 µM
11 | Cc1cn2nc(-c3cc(=O)n4cc(N5CCNC6(CC6)C5)ccc4n3)ccc2n1 [Example 19, 7-(4,7-diazaspiro[2.5]octan-7-yl)-2-(2-methylimidazo[1,2-b]pyridazin-6-yl)pyrido[1,2-a]pyrimidin-4-one] | 0.0298 µM | 1.83 | 
12 | Cc1cn2nc(-c3cc(=O)n4cc(N5C[C@@H](C)N[C@@H](C)C5)cc(C)c4n3)cc(C)c2n1 [Example 26, 2-(2,8-dimethylimidazo[1,2-b]pyridazin-6-yl)-7-[(3R,5S)-3,5-dimethylpiperazin-1-yl]-9-methyl-pyrido[1,2-a]pyrimidin-4-one] | 1.23 µM | 1.52 | 
13 | Cc1cn2nc(-c3cc(=O)n4cc(N5CCNC(C)(C)C5)cc(C)c4n3)cc(C)c2n1 [Example 27, 2-(2,8-dimethylimidazo[1,2-b]pyridazin-6-yl)-7-(3,3-dimethylpiperazin-1-yl)-9-methyl-pyrido[1,2-a]pyrimidin-4-one] | 0.127 µM | 1.57 | 
